Experimental data reported in patent US20250034216A1, “STEREOSELECTIVE COVALENT LIGANDS FOR ONCOGENIC AND IMMUNOLOGICAL PROTEINS” (The Scripps Research Institute, priority 2021, published 2025).

Columns and labels:
Assay in all cases: IA-DTB cysteine engagement
Type in all cases: binding
Conditions in all cases: 22Rv1 cells, 20 μM probe, 1 h, relative to DMSO
[1] = molecular target: T1, NUDT8_C207 (Homo sapiens, UniProt Q8WV74)
T1 construct: endogenous in cells; host or cells: 22Rv1
T1 sequence (Q8WV74 1-236): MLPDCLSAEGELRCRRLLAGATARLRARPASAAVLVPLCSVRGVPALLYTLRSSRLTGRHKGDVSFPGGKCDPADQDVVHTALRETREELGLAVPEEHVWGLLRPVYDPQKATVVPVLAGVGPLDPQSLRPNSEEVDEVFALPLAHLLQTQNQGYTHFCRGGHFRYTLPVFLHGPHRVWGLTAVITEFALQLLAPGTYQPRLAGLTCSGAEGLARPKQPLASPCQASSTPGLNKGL
Outline: (§1)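 First, cells are exposed to electrophilic probes in situ. Next, lysates are labeled with IA-DTB (1 h, ambient temperature), reduced, alkylated and trypsin-digested. Then, IA-DTB peptides are enriched on streptavidin, TMT-labeled and analyzed, with ratios taken against DMSO channels.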

[2] = molecular target: T2, SCAMP4_C20 (Homo sapiens, UniProt Q969E2)
T2 construct: endogenous in cells; host or cells: 22Rv1
T2 sequence (Q969E2 1-229): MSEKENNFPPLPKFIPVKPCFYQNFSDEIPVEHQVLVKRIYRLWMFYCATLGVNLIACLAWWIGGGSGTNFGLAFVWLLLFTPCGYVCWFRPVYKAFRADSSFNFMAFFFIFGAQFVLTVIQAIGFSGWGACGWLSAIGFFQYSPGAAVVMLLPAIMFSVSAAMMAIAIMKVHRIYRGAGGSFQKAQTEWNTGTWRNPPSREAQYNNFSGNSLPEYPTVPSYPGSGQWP
Outline: as §1

[3] = molecular target: T3, CHUK_C406 (Homo sapiens, UniProt O15111)
T3 construct: endogenous in cells; host or cells: 22Rv1
T3 sequence (O15111 1-745): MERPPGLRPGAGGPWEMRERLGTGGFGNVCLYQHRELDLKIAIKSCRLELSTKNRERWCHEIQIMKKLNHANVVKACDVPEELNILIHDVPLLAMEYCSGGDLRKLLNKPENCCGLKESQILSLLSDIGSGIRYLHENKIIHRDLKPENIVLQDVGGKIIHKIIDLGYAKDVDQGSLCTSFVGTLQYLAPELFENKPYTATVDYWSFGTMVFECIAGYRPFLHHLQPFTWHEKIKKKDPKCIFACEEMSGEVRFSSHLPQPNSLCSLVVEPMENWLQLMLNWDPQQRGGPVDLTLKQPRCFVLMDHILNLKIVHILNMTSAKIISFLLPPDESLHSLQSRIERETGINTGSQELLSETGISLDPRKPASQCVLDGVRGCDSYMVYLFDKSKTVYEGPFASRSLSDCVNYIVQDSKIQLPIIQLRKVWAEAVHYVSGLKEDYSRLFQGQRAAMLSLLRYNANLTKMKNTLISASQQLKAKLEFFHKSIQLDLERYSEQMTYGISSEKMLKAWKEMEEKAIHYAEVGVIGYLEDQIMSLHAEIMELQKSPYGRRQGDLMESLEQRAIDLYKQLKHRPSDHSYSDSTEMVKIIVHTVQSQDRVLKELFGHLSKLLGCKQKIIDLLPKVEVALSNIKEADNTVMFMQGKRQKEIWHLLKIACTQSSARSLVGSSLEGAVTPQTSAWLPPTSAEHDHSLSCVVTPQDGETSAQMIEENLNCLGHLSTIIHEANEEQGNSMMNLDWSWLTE
Outline: as §1

% engagement NUDT8_C207 [1] [%] | % engagement SCAMP4_C20 [2] [%] | % engagement CHUK_C406 [3] [%] | Structure (SMILES)
88.75 | 100 | 97 | C=CC(=O)N1C[C@H](c2ccc(Br)cc2)[C@H]1C(=O)Nc1cccc2cccnc12 [MY-3B, (2S,3S)-1-acryloyl-3-(4-bromophenyl)-N-(quinolin-8-yl)azetidine-2-carboxamide]
78.5 | 85.5 | 28.5 | C=CC(=O)N1C[C@H](c2ccc(Br)cc2)[C@@H]1C(=O)Nc1cccc2cccnc12 [MY-1B, (2R,3S)-1-acryloyl-3-(4-bromophenyl)-N-(quinolin-8-yl)azetidine-2-carboxamide]
64.25 | 72.5 | 0 | C=CC(=O)N1C[C@H](c2ccc(Br)cc2)[C@H]1C(=O)Nc1cccc2cccnc12 [MY-3A, (2S,3S)-1-acryloyl-3-(4-bromophenyl)-N-(quinolin-8-yl)azetidine-2-carboxamide]
71.5 | 80 | 51.5 | C=CC(=O)N1C[C@@H](c2ccc(Br)cc2)[C@H]1C(=O)Nc1cccc2cccnc12 [MY-1A, (2S,3R)-1-acryloyl-3-(4-bromophenyl)-N-(quinolin-8-yl)azetidine-2-carboxamide]
